Measurements reported in patent US12109207B2, “Methods of using 4(1H)-quinolone derivatives” (Academia Sinica, priority 2019, dated 2024).

Experiments:
[1] = test system: A549; assay: Cell cytotoxicity assay (MTS), A549; type: cell-based; details: Homo sapiens, A549, 72 h
Description: (§1) Cells were seeded into the wells of 96-well plates (2000 cells/well). After an overnight culture, the cells were treated with different concentrations of a compound for 72 h. The CellTiter 96 AQueous one-solution cell proliferation assay (MTS) reagent was used to determine cytotoxicity. After treatment with a compound, 20 μL of the MTS reagent was added to each well and the plates were incubated at 37° C. for 1-4 h. Next, the absorbance at 490 nm of the culture medium in each well was determined using a VersaMax microplate reader (Molecular Devices).

[2] = test system: CL1-0; assay: Cell cytotoxicity assay (MTS), CL1-0; type: cell-based; details: Homo sapiens, CL1-0, 72 h
Description: as §1

[3] = test system: PC9; assay: Cell cytotoxicity assay (MTS), PC9; type: cell-based; details: Homo sapiens, PC-9, PC9, 72 h
Description: as §1

[4] = test system: Hs578t; assay: Cell cytotoxicity assay (MTS), Hs578t; type: cell-based; details: Homo sapiens, Hs-578T, 72 h
Description: as §1

[5] = test system: MDA-MB-231; assay: Cell cytotoxicity assay (MTS), MDA-MB-231; type: cell-based; details: Homo sapiens, MDA-MB-231, 72 h
Description: as §1

[6] = test system: 37T; assay: Cell cytotoxicity assay (MTS), 37T; type: cell-based; details: Homo sapiens, 72 h
Description: as §1

[7] = test system: 82T; assay: Cell cytotoxicity assay (MTS), 82T; type: cell-based; details: Homo sapiens, 72 h
Description: as §1

[8] = test system: SKOV-3; assay: Cell cytotoxicity assay (MTS), SKOV-3; type: cell-based; details: Homo sapiens, SK-OV-3
Description: as §1

[9] = test system: Ovcar-3; assay: Cell cytotoxicity assay (MTS), Ovcar-3; type: cell-based; details: Homo sapiens
Description: as §1

[10] = test system: SAS; assay: Cell cytotoxicity assay (MTS), SAS; type: cell-based; details: Homo sapiens
Description: as §1

[11] = test system: OECM1; assay: Cell cytotoxicity assay (MTS), OECM1; type: cell-based; details: Homo sapiens
Description: as §1

[12] = test system: KB; assay: Cell cytotoxicity assay (MTS), KB; type: cell-based; details: Homo sapiens
Description: as §1

[13] = test system: HCT116; assay: Cell cytotoxicity assay (MTS), HCT116; type: cell-based; details: Homo sapiens, HCT-116
Description: as §1

[14] = test system: HT-29; assay: Cell cytotoxicity assay (MTS), HT-29; type: cell-based; details: Homo sapiens
Description: as §1

[15] = test system: SW620; assay: Cell cytotoxicity assay (MTS), SW620; type: cell-based; details: Homo sapiens, SW-620
Description: as §1

[16] = test system: Du-145; assay: Cell cytotoxicity assay (MTS), Du-145; type: cell-based; details: Homo sapiens
Description: as §1

[17] = test system: Molt4; assay: Cell cytotoxicity assay (MTS), Molt4; type: cell-based; details: Homo sapiens, MOLT-4
Description: as §1

[18] = test system: CCRF-CEM; assay: Cell cytotoxicity assay (MTS), CCRF-CEM; type: cell-based; details: Homo sapiens
Description: as §1

[19] = test system: normal bronchial epithelial (NBE) cells; assay: Cell cytotoxicity assay (MTS), normal bronchial epithelial cells; type: cell-based; details: Homo sapiens, normal cell line NBE (printed NEB in Table 2)
Description: as §1

[20] = test system: human fibroblast (HFB) cells; assay: Cell cytotoxicity assay (MTS), human fibroblast; type: cell-based; details: normal cell line HFB
Description: as §1

[21] = test system: KBvin; assay: Cell cytotoxicity assay (MTS), KBvin; type: cell-based, human
Description: as §1

[22] = test system: CEM/VBL; assay: Cell cytotoxicity assay (MTS), CEM/VBL; type: cell-based, human; details: CEM/VBL vs CCRF-CEM
Description: as §1

[23] = test system: HDQP1; assay: Cell cytotoxicity assay, HDQP1; type: cell-based; details: Homo sapiens, HDQ-P1; TNBC cell line HDQP1
Description: as §1

[24] = test system: HDQP1/TAX; assay: Cell cytotoxicity assay, HDQP1/TAX; type: cell-based, human
Description: as §1

[25] = test system: A549, CL1-0, PC9, and H1975; assay: MTS assay, non-small cell lung cancer cell lines; type: cell-based; details: Homo sapiens; A549, CL1-0, PC9, H1975; 72 h MTS; read-out: IC50 values for the affected cell lines
Description: as §1

[26] = molecular target: tubulin (Sus scrofa, UniProt P02554); assay: Binding affinity assay (surface plasmon resonance); details: steady-state model, 25° C.; read-out: dissociation constant (KD) for the tubulin-AS1712 complex
Description: Surface plasmon resonance technology was used to analyze the binding affinity of AS1712 for tubulin. A Series S Sensor Chip SA was conditioned with three consecutive 1-min injections of 1 M NaCl in 50 mM NaOH, and then 50 μg/mL biotin-tubulin (Cytoskeleton) was immobilized onto the sensor chip surface in a Biacore T200 system (GE Healthcare) to attain 3,000 resonance units. One flow cell on the chip was left free to serve as the negative control. Biocytin (Sigma Aldrich) was used to block any remaining unmodified streptavidin sites. Different concentrations of AS1712 in 10 mM HEPES, 150 mM NaCl, 3 mMEDTA, and 0.05% surfactant P20, pH 7.4 were separately injected over the sensor chip surface to measure the association and dissociation of AS1712 and tubulin at 25° C. The value of KD was calculated using the steady-state fitting mode in Biacore T200 Evaluation Software.

[27] = Body mass and serum biochemical markers, H1975 xenograft mice; type: in vivo, BALB/c nude mice; details: for ALT (IU/L) / AST(IU/L) / BUN / Cre: day 25, mean ± SEM
Description: Using the H1975, MDA-MB-231, and KBtax xenograft models, tumors were established after inoculation into the right flanks of 6-week-old BALB/c nude mice (NARLabs, Taipei, Taiwan). After establishment of the tumors, vehicle and test compounds, which had been dissolved in DMSO, were each injected intraperitoneally into a separate group of animals three times per week. The body mass of each animal and tumor volumes were measured before each drug delivery. Tumor volume was calculated as 0.5W^2L (with W being the width of the smaller diameter and L being the length of the larger diameter). The animal experiment was carried out in accordance with the procedures and guidelines of the Institutional Animal Care and Use Committee, Institute of Biomedical Sciences, Academia Sinica.

[28] = test system: CL1-0 and H1975 cells; assay: Cell cycle analysis (flow cytometry); type: cell-based, human; details: 24 h, propidium iodide
Description: After treatment, cells were trypsinized and fixed in ice-cold 70% ethanol overnight. Fixed cells were washed with PBS and stained with 0.5 mL of a propidium iodide (10 μg/mL)/RNase (20 μg/mL) solution for 30 minutes. The cellular DNA content was analyzed with a FACSCanto flow cytometer (Becton Dickinson).

tubulin, sequence (P02554 whole entry): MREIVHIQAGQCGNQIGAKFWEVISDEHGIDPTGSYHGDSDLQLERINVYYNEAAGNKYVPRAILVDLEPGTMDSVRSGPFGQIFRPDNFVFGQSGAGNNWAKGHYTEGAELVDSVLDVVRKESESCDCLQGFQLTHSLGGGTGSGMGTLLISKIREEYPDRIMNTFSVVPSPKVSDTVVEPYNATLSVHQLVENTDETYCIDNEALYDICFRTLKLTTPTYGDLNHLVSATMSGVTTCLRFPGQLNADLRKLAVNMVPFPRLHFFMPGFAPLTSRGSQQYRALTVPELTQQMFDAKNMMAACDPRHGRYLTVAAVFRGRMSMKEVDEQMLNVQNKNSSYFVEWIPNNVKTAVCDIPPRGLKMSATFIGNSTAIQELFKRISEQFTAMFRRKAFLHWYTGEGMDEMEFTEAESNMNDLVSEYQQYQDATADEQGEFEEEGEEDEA
tubulin, sequence (P02550 whole entry partner): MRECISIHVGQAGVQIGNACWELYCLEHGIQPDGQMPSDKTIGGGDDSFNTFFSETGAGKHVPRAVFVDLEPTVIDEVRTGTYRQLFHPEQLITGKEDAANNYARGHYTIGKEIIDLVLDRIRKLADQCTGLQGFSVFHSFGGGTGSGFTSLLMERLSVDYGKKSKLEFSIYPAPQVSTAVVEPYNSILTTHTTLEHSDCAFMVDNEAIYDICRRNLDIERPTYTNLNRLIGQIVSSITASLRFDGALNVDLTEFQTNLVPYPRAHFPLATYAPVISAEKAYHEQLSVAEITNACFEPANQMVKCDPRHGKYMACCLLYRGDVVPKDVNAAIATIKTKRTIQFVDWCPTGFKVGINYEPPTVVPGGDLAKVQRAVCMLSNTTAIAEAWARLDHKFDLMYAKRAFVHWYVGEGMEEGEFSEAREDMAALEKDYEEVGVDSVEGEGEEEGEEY

Work on `CCOC(=O)c1ccc2[nH]c(-c3ccccc3)cc(=O)c2c1` [AS1712, Ethyl 4-oxo-2-phenyl-1,4-dihydroquinoline-6-carboxylate] yielded an IC50 [1] of 20 ± 0.98 nM, an IC50 [2] of 16 ± 2.48 nM and an IC50 [3] of 17 ± 2.09 nM. The IC50 [4] was 41 ± 2.87 nM, the IC50 [5] was 55 ± 6.83 nM and the IC50 [6] was 34 ± 2.99 nM. The IC50 [7] was 35 ± 0.67 nM, the IC50 [8] was 50 ± 0.32 nM and the IC50 [9] was 28 ± 1.08 nM. The IC50 [10] was 78 ± 10.4 nM, the IC50 [11] was 52 ± 1.94 nM and the IC50 [12] was 37 ± 0.27 nM. The IC50 [13] was 50 ± 0.81 nM, the IC50 [14] was 48 ± 0.62 nM and the IC50 [15] was 35 ± 1.18 nM. The IC50 [16] was 47 ± 1.28 nM, the IC50 [17] was 38 ± 1.03 nM and the IC50 [18] was 45 ± 0.45 nM. For the same compound, the IC50 [19] was > 10000 nM, the IC50 [20] was > 10000 nM and the IC50 ([21]; Homo sapiens, KBvin, P-gp overexpressing, vincristine-selected KB subline) was 37 ± 0.77 nM. For the same compound, the “RF, resistance factor (IC50 in resistant cell line/IC50 in parent cell line)” value (“RF, resistance factor” for short) ([21]; KBvin vs KB) was 1, the “RF, resistance factor” value [22] was 0.97 and the IC50 [23] was 68 ± 5.38 nM. For the same compound, the “RF, resistance factor” value ([24]; HDQP1/TAX vs HDQP1) was 0.92, the IC50 ([24]; Homo sapiens, HDQ-P1, Paclitaxel-resistant subline) was 63 ± 16.3 nM and the IC50 [25] was 16 to 33 nM. For the same compound, the Kd [26] was 13800 nM, the “ALT (IU/L)” value ([27]; 4 mg/kg) was 40.8 ± 11 IU/L and the “AST(IU/L)” value ([27]; 4 mg/kg) was 138.7 ± 58.6 IU/L. For the same compound, the “BUN” value ([27]; 4 mg/kg) was 23.2 ± 2.5 mg/dL, the “Cre” value ([27]; 4 mg/kg) was 0.26 ± 0.05 mg/dL and the “ALT (IU/L)” value ([27]; 8 mg/kg) was 54.2 ± 16 IU/L. The “AST(IU/L)” value ([27]; 8 mg/kg) was 170.8 ± 44.5 IU/L, the “BUN” value ([27]; 8 mg/kg) was 20.9 ± 1.5 mg/dL and the “Cre” value ([27]; 8 mg/kg) was 0.17 ± 0.02 mg/dL. For the same compound, the body mass ([27]; 4 or 8 mg/kg i.p. three times a week, end of experiment) was “non-toxic affected” and the “sub-G1 and G2/M-phase population” value [28] was “increased”.
